Legend:
[1] = biological target: T1, Recombinant rat neuronal nitric oxide synthase (NOS1) (Rattus norvegicus, UniProt P29476); assay: NO formation by NOS1, total nitrite and nitrate (colorimetric); type: biochemical
T1 construct: purchased Oxis, Portland, Oreg
Description: (§1) Recombinant rat neuronal nitric oxide synthase (NOS1, Oxis, Portland, Oreg.), a constitutive enzyme, was used to assay NADPH oxidation in the presence of increasing concentrations of paraquat. Reactions (0.2 ml) were performed in bis-tris propane buffer (40 mM) containing L-arginine (1 mM), CaCl2 (1.2 mM), EDTA (0.9 mM), NADPH (0.35 mM), dithiothreitol (3 mM), tetrahydrobiopterin (4 μM), catalase (1 μg/ml) and calmodulin (200 U/ml) at pH 7.4. Reactions were initiated by the addition of 1.5 U of NOS1, and the oxidation of NADPH was continuously monitored at 340 nm for 1 minute at 37° C. in a plate reader. The rate of NOS-mediated NADPH oxidation was determined using an extinction coefficient of 6.22 mM^-1 cm^-1 after subtracting the baseline of NADPH oxidation.
The same microtiter plates used above were left at room temperature for 5 hours and then an aliquot was assayed for total nitrite and nitrate. Nitrite and nitrate were assayed using a non-enzymatic colorimetric kit (NB-88, Oxford Biomedical Research, Oxford, Mich.). NADPH oxidation was stopped after 5 hours by addition of 25 μl of zinc sulfate (30% w/v) to precipitate the NOS protein. Nitrate was non-enzymatically converted to nitrite by overnight incubation of 150 μl of reaction mixture from the NADPH oxidation assay with cadmium beads. Nitrite concentration was determined from a standard curve using 100 μl sample or standard. As shown FIG. 1(b), the formation of NO was inhibited by paraquat.

[2] = tested on: restenosis; assay: Working Example VIII: restenosis patient; type: in vivo, human; details: 10 mg locally instilled via balloon, repeat angioplasty
Description: A person undergoes angioplasty of the left anterior descending coronary artery. Two weeks following procedure, they present with chest pain and the radiographic evidence of restenosis. They undergo repeat angioplasty with infusion of paraquat (dosage of 10 mg), locally instilled under pressure via the balloon.

[3] = tested on: aconitase; assay: Aconitase/fumarase activity ratio in macrophage lysates; type: cell-based; details: 24 hours, FIG. 5
Description: Aconitase activity (a sensitive marker of O2^- and peroxynitrite formation) and fumarase activity were measured as described in Patel, M., et al., Nuron 16, 345-355 (1996). Specifically aconitase activity was determined spectrophotometrically by monitoring the formation of cis-aconitate from isocitrate at 240 nm. Fumarase activity was measured by monitoring the increased absorbence at 240 mn following the formation of fumarate from L-malate. Aconitase activity was expressed as a ratio of aconitase activity to flimarase activity in order to correct for differences in cell numbers.
Aconitase activity was measured in cell lysates 24 hours after cytomix, DETA nonoate and paraquat treatments. Macrophages were grown in 24-well plates and treated with cytomix or 250 μM DETA NONOate. Control, activated (cytomix) and DETA NONOate groups were treated with paraquat (0.1 mM) or not treated with paraquat. The results are shown in FIG. 5 where an asterisk indicates a significant difference from control group, p<0.05.

[4] = tested on: Rabbit aortic rings; assay: Acetylcholine-induced (EDRF) relaxation of aortic rings
Description: Rabbit aortic rings were treated with increasing concentrations of paraquat or L-NAME (2 mM) prior to initiating a constriction response with 1 μM phenylephrine (initial contraction).
New Zealand white male rabbits weighting 3-4 kg were anaesthetized with phenobarbital (30 mg/kg/iv). The descending thoracic aorta was isolated and placed in Krebs-Henseleit buffer (pH 7.4) and stored at 4° C. until used. The vessels were cut into 5 mm rings and submerged in 25 ml double jacketed tissue baths containing Krebs-Henseleit buffer bubbled with 95% oxygen and 5% carbon dioxide at 37° C. Rings were hung on stainless steel stirrups connected to calibrated force transducers. Rings were equilibrated with 2 g resting tension for 1 hour before use and contracted with phenylephrine (1 μM). Rings were incubated with paraquat for 15 minutes before acetylcholine-induced or exogenous relaxations were performed.
Endothelial-derived relaxing factor (EDRF) responses were initiated by addition of acetylcholine.

[5] = biological target: T1, Recombinant rat neuronal nitric oxide synthase (NOS1); assay: NADPH oxidation (paraquat diaphorase activity) by recombinant rat neuronal nitric oxide synthase; type: biochemical
Description: as §1
The experiment of Background Example 1 for NADPH oxidation was carried out in the presence and absence of 25 μM paraquat, without any NOS inhibitor (control), in the presence of L-NAME (1 mM) or in the presence of 1 mM L-NMMA. […] Only L-NAME shut down the NADPH oxidase activity.

[6] = tested on: squamous cell carcinoma; assay: Working Example VI: mouth squamous cell carcinoma patient; type: in vivo, human; details: 5 cc swish and spit, 100 μM
Description: A mouth lesion is noted in a smoker during a routine dental visit. The lesion is found to be a squamous cell carcinoma. […] The patient is given a 5 cc solution of paraquat swish and spit (at a dose of 100 μM).

[7] = tested on: RAW-264.7 monocyte macrophage cells; assay: NO production, nitrite plus nitrate, in macrophages; type: cell-based; details: 0.1 mM paraquat, 24 hours
Description: (§2) The RAW-264.7 monocyte macrophage cells line (TIB-71) was purchased from the American Type Culture Collection (Manassas, Va.). The cells were grown in T-75 flasks containing DMEM (Gibco-BRL, Grand Island, N.Y.) supplemented with 1 mM pyruvate, 4.5 g/L glucose and […] fetal bovine serum Macrophages were plated at 2.0×10^4 cells/well in 24-well plates and experiments were performed when cells were near confluence. Macrophages were immunostimulated with 50 ng/ml lipopolysaccharide (LPS) from E. coli serotype 0111:B4 (Signia, St. Louis, Mo.) and 50 U/ml recombinant mouse interferon gamma (INF-γ, R&D Systems, Minneapolis,Minn.). Macrophages were used between passages 2-8. Cell cultures were kept in a 37° C. incubator with air and 5% carbon dioxide.
(§3) NOS2 was induced in RAW cells using a mixture of interferon-γ and lipopolysaccharide (LPS) referred to as "cytomix." Unstimulated (basal) and activated (cytomix) macrophages were treated with 0.1 mM paraquat or not treated with paraquat and cytotoxicity and NO production were assessed at 24 hours.
NO production, assessed by measuring the accumulation of the NO metabolites nitrite and nitrate 24 hours after cytomix treatment, is shown in FIG. 4(b). […] NOS2 expression was not affected (data not shown).
To further exclude the role of peroxynitrite, macrophages were treated with increasing concentrations of the NO-donor, DETA NONOate in the presence of 0.1 mM paraquat. Macrophage cytotoxicity and NO release were assessed 24 hours after treatments. Cell injury was assessed by measuring LDH release.

[8] = tested on: NOS2; assay: NOS2 expression in macrophages; type: cell-based; details: 0.1 mM paraquat, cytomix; data not shown
Description: as §2, §3

[9] = conclusion of Background Example 1

T1 sequence (P29476 whole entry): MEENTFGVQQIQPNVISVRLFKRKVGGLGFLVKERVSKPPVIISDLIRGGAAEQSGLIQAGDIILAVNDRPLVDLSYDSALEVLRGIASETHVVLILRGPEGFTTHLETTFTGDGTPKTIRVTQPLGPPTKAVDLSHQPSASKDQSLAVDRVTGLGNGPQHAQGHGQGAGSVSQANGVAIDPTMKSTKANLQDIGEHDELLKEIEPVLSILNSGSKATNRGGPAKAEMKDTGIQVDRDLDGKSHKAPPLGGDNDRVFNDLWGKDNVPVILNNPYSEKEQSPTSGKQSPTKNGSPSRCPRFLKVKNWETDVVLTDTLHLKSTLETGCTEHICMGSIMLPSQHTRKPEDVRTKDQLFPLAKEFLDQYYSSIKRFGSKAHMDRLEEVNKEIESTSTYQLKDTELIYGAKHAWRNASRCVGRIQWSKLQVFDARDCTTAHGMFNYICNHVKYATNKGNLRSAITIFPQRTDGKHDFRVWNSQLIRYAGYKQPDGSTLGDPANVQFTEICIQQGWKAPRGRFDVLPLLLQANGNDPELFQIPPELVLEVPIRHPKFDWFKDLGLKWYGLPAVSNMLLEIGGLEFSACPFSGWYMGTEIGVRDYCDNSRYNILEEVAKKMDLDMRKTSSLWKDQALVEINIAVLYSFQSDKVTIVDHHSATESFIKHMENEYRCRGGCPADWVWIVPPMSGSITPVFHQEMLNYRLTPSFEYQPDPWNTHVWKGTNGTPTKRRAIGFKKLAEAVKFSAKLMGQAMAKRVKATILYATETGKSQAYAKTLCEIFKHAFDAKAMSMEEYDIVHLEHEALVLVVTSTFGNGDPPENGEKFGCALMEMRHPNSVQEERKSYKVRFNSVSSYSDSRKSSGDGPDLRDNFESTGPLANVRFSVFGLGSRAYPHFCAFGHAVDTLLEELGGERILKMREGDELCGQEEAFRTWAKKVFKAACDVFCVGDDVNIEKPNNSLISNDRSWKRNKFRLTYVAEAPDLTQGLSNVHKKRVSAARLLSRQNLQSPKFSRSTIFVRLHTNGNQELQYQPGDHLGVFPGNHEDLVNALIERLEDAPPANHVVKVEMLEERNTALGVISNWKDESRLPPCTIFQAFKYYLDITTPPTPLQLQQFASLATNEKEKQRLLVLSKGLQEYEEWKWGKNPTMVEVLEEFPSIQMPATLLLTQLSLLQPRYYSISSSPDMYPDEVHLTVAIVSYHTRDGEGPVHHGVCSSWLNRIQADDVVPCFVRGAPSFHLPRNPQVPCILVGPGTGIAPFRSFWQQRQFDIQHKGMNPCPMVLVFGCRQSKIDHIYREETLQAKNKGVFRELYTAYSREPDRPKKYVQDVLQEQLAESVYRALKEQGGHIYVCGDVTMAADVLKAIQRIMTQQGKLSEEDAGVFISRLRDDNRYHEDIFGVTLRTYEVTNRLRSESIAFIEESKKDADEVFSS

In the case of C[n+]1ccc(-c2cc[n+](C)cc2)cc1 [paraquat], the “NO formation (accumulation of nitrite and nitrate)” value ([1]; FIG. 1(b), 5 hours at room temperature) is reported as “concentration dependent decrease in NO formation”, the IC50 ([1]; concentration that inhibited NO formation by 50%, 95% confidence level 47-82 μM, 5 hours, read-out: IC50, inhibition of NO formation) is reported as 62 µM and the NOS activity [1, 9] is reported as “inhibits NOS activity”. For the same molecule, the restenosis or angina [2] was “without further episode of restenosis or angina”, the aconitase activity ([3]; paraquat 0.1 mM plus 250 μM DETA NONOate) was “not seen in the paraquat/DETA NONOate group” and the aconitase activity ([3]; paraquat 0.1 mM plus cytomix) was “a decrease in aconitase activity is seen”. For the same molecule, the “EDRF responses / vessel constriction, conclusion” value ([4]; conclusion of Background Example 3) was “blocks EDRF responses and thereby constricts blood vessels”, the “inhibition of EDRF-induced relaxation, in words” value ([4]; increasing paraquat, 15 min before acetylcholine, phenylephrine 1 μM, FIG. 3(a)) was “dose-dependent inhibition of EDRF-induced relaxation” and the “increase in NADPH oxidation over the basal rate” value ([5]; 25 μM paraquat without NOS inhibitor, FIG. 2(a)) was “about three-fold”. The “NOS diaphorase / superoxide formation” value [5, 9] was “is an NOS diaphorase and causes superoxide formation”, the “paraquat diaphorase activity of NOS1” value ([5]; in the presence of 1 mM L-arginine) was “NOS1 was found to exhibit paraquat diaphorase activity” and the NADPH oxidation ([5]; increasing paraquat concentrations, 1 mM L-arginine, pH 7.4, 37° C., FIG. 1(a)) was “concentration-dependent increase in NADPH oxidation”. The adverse effect [6] was “complicating oral ulcerations”, the tumor regression ([6]; seven days) was “tumor is found to have regressed” and the “formation of NO metabolites from DETA NONOate” value ([7]; FIG. 4(d)) was “does not alter the formation of NO metabolites from DETA NONOate”. The “percent decrease in nitrite and nitrate compared with percent increase in cell death” value ([7]; cytomix-activated) was “percent decrease in nitrite and nitrate was greater than percent increase in cell death”, the “NO production (nitrite and nitrate)” value ([7]; cytomix-activated, FIG. 4(b)) was “significantly attenuated NO production” and the NOS2 expression [8] was “not affected”.

From patent US6231894A, “Treatments based on discovery that nitric oxide synthase is a paraquat diaphorase” (Duke University, priority 1999, dated 2001)
